Source: patent US20250114336A1, “USE OF ANTI-RETROVIRAL PROTEASE INHIBITORS FOR THE TREATMENT OF AMYOTROPHIC LATERAL SCLEROSIS (ALS)” (The Regents of the University of Colorado, a body corporate, priority 2023, published 2025)
“Also recorded” adds a separate entry of the source.

Target: T1, human PEG10 (Homo sapiens, UniProt Q86TG7)
T1 construct: expressed in transfected cells; host or cells: HEK293
T1 sequence (Q86TG7 1-708): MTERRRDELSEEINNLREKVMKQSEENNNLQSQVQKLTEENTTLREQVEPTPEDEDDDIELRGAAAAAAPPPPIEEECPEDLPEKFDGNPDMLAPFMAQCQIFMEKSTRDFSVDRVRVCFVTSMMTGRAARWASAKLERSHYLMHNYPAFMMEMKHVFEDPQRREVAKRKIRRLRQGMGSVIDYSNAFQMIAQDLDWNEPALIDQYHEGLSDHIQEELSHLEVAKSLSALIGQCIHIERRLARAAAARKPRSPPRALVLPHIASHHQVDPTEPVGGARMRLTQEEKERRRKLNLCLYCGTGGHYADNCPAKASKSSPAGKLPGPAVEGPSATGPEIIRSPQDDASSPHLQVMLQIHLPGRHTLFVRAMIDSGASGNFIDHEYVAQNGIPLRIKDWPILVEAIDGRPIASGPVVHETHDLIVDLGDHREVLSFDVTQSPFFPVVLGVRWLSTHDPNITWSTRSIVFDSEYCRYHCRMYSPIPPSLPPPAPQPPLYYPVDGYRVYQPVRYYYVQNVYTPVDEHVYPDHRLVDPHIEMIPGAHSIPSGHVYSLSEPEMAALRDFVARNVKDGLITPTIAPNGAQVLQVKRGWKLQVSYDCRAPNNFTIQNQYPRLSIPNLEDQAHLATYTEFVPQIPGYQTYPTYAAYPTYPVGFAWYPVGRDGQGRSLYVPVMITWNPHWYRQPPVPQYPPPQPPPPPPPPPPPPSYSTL
Assay: Western blot of PEG10 abundance and self-cleavage in HEK293 cells transfected with human PEG10
Type: cell-based
Details: HEK293 cells transfected with WT human PEG10, incubated 24 hours with increasing concentrations of drug (up to 50 uM), compared to untreated
Experimental: FIG. 1: Western blot of PEG10 self-cleavage testing with antiretroviral compounds. HEK293 cells were transfected with either WT or a cleavage-incompetent mutant form of human PEG10 and incubated for 24 hours with the indicated concentrations of drug. After 24 hours, cells were lysed and imaged by western blot.
FIG. 2A-D: PEG10 abundance is decreased by ritonavir, but not indinavir. a-d) Bands identified in FIG. 1 were quantified and normalized to Tubulin for a) gag-pol, b) gag, c) CA fragment, and d) CA^NTD fragment. Shown is mean+/−SEM for four representative experiments; one sample from untreated indinavir and 50 uM of indinavir and ritonavir were not collected. Statistics were measured by One-way ANOVA with multiple comparisons to untreated; statistically significant comparisons are shown with asterisks. ANOVA summary significance is shown with straight line.
Shown is mean+/−SEM for four representative experiments; one sample from untreated indinavir and 50 uM of indinavir and ritonavir were not collected. Statistics were measured by One-way ANOVA with multiple comparisons to untreated; statistically significant comparisons are shown with asterisks. ANOVA summary significance is shown with straight line.
Applicants performed an assay using western blot to assess self-cleavage of transfected PEG10 (FIG. 1) with a negative control where the PEG10 protease is mutated. […]

SMILES: CC(C)c1nc(CN(C)C(=O)N[C@H](C(=O)N[C@@H](Cc2ccccc2)C[C@H](O)[C@H](Cc2ccccc2)NC(=O)OCc2cncs2)C(C)C)cs1 [ritonavir]
- PEG10 abundance (expression in the cell; bands normalized to Tubulin: gag-pol, gag, CA fragment, CA NTD fragment): decreased; also recorded: uniquely decreases PEG10 expression
- Self-cleavage of PEG10 (ratios gag-pol to gag, CA fragment to gag, CA NTD fragment to gag): modestly affected; also recorded: modest effect
